Key:
[1] = analysis of blood samples / plasma levels in rats after oral delivery; format: in vivo
Description: FIG. 1 is a graph of in plasma levels of Example 1 compared to Nabumetone.

rat paw edema = experiment: rat paw edema; format: in vivo
[2] = oral administration; cited from earlier work

| melting point [°C] | Compound | plasma levels and onset compared to Nabumetone (FIG. 1) [1] | rat paw edema, % inhibition (rat paw edema) [%] | fraction of orally administered nabumetone transferred in vivo into 6MNA [2] |
| --- | --- | --- | --- | --- |
| 110 to 113 | COc1ccc2cc(CCO)ccc2c1 [Example 1, 2-(6-Methoxy-naphthalen-2-yl)-ethanol] | higher plasma levels, with more rapid onset | 67.5 |  |
|  | COc1ccc2cc(CCC(C)=O)ccc2c1 [Nabumetone, nabumetone, reference compound] |  | 60.0 | about 35% |

Reference: patent US6525098B1, “6-methoxy-2-naphthylacetic acid prodrugs” (Nobex Corporation, priority 1999, dated 2003)
